In PMC11477209, “Toxicological Evaluation of Kaempferol and Linearolactone as Treatments for Amoebic Liver Abscess Development in Mesocricetus auratus” (International Journal of Molecular Sciences, 2024):
Values after ≈ are worked out from the molar mass of the structure shown.

Experiments:
CHO-K1 cells = assay: MTT cytotoxicity assay; assay type: cell-based, Chinese hamster; conditions: 24 h, MTT
BEAS-2B cells = assay: MTT cytotoxicity assay; assay type: cell-based, human; conditions: 24 h
[1] = test system: E. histolytica trophozoites (amoebic liver abscess); assay: Amoebic liver abscess (ALA) model, antiparasitic protocol; assay type: in vivo, Mesocricetus auratus
From the text: M. auratus was used as an animal model because the hamster is naturally susceptible to infection by E. histolytica and can develop amoebic colitis or extraintestinal complications such as an ALA [71]. In this context, the hamster can be used to search for new alternative therapeutic agents against amoebiasis. The hamsters were acquired from Charles River Laboratories Inc. (Wilmington, MA, USA) in 2017 by Centro de Investigación y de Estudios Avanzados del Instituto Politécnico Nacional ([…]-IPN). […] Male hamsters (sexually mature and homozygous) weighing 95 ± 5 g and ≈10 weeks old were selected for the experiments. They were maintained in aseptic conditions at 25 ± 1 °C, 50 ± 3% humidity, a 12 h photoperiod, and ad libitum access to a standard diet (LabDiet; Richmond, IN, USA) and water (Figure 5A). The hamsters were housed in polycarbonate boxes (five per box), with an American Iron and Steel Institute (AISI) lid and wood shavings as bedding, in a controlled room of the Animal Production and Experimentation Unit (UPEAL) from […]-IPN (Figure 5A). Additionally, the health state of the hamsters and their adaptation to the new laboratory conditions were evaluated for 15 days to decrease their stress and anxiety levels. This study was carried out according to the Official Mexican Regulations (NOM-062-ZOO-1999) and NC3Rs ARRIVE [60, 72]. The protocol was approved by the Institutional Animal Care and Use Committee (Reg. No. 0183-16). Finally, the hamsters were not subjected to any previous experimental procedure or any additional treatment before beginning the experimental procedures (see File S1, NC3Rs ARRIVE Guidelines Checklist). Compounds that are prohibited and/or not recommended for use in animals by the American Veterinary Medical Association (Guidelines for the Euthanasia of Animals) were not used.
These experiments were performed with three independent biological replicates. For each replicate, twenty-five hamsters were randomly distributed (simple type) into five experimental groups (five animals per group). The sample size was determined based on the Organization for Economic Cooperation and Development (OECD) recommendations that establish the minimum number of individuals required for the tests so as not to sacrifice animals unnecessarily. Laparotomy was performed in aseptic conditions by using depilation, iodine solution, as well as sterile field cloths. Subsequently, an intra-hepatic puncture was made to deliver 1.5 × 10^6 virulent E. histolytica trophozoites in 100 μL of 1× PBS into the left hepatic lobe for ALA induction (Figure 5A-3). The injection site was immediately covered by applying a gel foam pad to maintain hemostasis. The abdominal layers were sutured discontinuously by single vertical stitches using Vicryl synthetic absorbable suture with a triangular pointed half circle needle. Irregular edges or folds in the surgical wound were eliminated to avoid tissue devitalization or possible infections. The development of a hepatic ALA was monitored for 4 days (Figure 5A-4).
(Figure 5B). The compounds were administered by the i.p. route because the peritoneal cavity presents rapid fluid absorption into the bloodstream, and initial biotransformation by the gastrointestinal tract is avoided. […] The hamsters were evaluated 24 h post-treatment to detect any signs of discomfort/pain or toxicity. The humane endpoint criteria used in this study were >20% body weight loss overnight, cachexia, recumbence, lethargy, respiratory distress, inability to reach food and water, lack of grooming, and ulceration around the surgical site, among others. Additionally, the weight of hamsters was determined at the beginning and end of the experiment with an electronic bascule (CS200, Ohaus; Parsippany, NJ, USA), and the ALA volume was calculated based on imaging (Figure 5B-1). […]

[2] = Paraclinical analysis (serum biochemistry, hematic biometry) in ALA hamsters; assay type: in vivo, Mesocricetus auratus
Protocol: Serum was obtained by centrifugation at 3500 rpm and frozen at −70 °C until analysis. Hematic biometry was performed in a hematology autoanalyzer system (BC-2300, Mindray; Shenzhen, China), and biochemical parameters were made on an automatic medical system (Prestige 24i, Tokyo Boeki; Kanagawa, Japan).

[3] = in vivo
Protocol: After blood samples were obtained, the hamsters were sacrificed with a lethal dose of sodium pentobarbital, followed by a cervical fracture. They were mounted on a dissecting board for the necropsy. A complete mid-laparotomy was performed to remove the lungs, spleen, heart, liver, and kidneys. An excisional biopsy was performed to recover the ALA lesions for morphometric analysis. The organs and ALA lesions were rinsed with 1× PBS, weighed, and adherent tissue was removed. […] Later, the inclusion protocol was performed to obtain histological sections (3 μm thick) with a rotatory microtome (RM2125-RTS, Leica; Wetzlar, Germany). Tissue slices were stained with hematoxylin-eosin (Merck; Rahway, NJ, USA), mounted on coverslips with Entellan^TM-New (Merck; Rahway, NJ, USA), and observed with optical microscopy (Eclipse 80i, Nikon; Tokio, Japan).

[4] = test system: E. histolytica trophozoites (virulent HM-1 strain)
[5] = Chinese hamster (CHO-K1) and human (BEAS-2B)
[6] = test system: E. histolytica trophozoites (virulent HM-1 strain); assay: microbe, parasite or virus in culture; conditions: Entamoeba histolytica, 48 h, read-out: IC50 HM-1, 48 h, flow cytometry

**Q.** Which “biological activity symbol on IC50 CHO-K1” value (CHO-K1 cells) does the source give for `Cc1ncc([N+](=O)[O-])n1CCO` [MTZ, metronidazole, reference compound] here?
**A.** -

**Q.** And the IC50 (CHO-K1 cells; Cricetulus griseus, CHO-K1, read-out: IC50 CHO-K1)?
**A.** 500 µg/mL (≈ 2920 µM)

**Q.** What about the “biological activity symbol on IC50 BEAS-2B” value (BEAS-2B cells) of the same compound?
**A.** -

**Q.** And the IC50 (BEAS-2B cells; Homo sapiens, BEAS-2B)?
**A.** 400 µg/mL (≈ 2340 µM)

**Q.** What about the Edges ([1]; ALA characteristics) of the same compound?
**A.** Regular and well defined

**Q.** And the Leukocyte infiltrate ([1]; ALA characteristics)?
**A.** −

**Q.** What about the Liquid ([1]; ALA characteristics) of the same compound?
**A.** −

**Q.** What about the Morphology ([1]; ALA characteristics) of the same compound?
**A.** Round

**Q.** And the “ALA Volume” value ([1]; MRI, i.p. 4 days)?
**A.** 528 ± 183.5 * mm^3

**Q.** And the “MRI T1 signal of ALA” value ([1]; T1)?
**A.** Intermediate intensity

**Q.** And the “MRI T2 signal of ALA” value ([1]; T2)?
**A.** hypointense

**Q.** And the “ALA Weight” value ([1]; i.p. 4 days, KP 5, LL 10, MTZ 10 mg/kg/day)?
**A.** 0.33 ± 0.32 g

**Q.** And the MPV ([2]; blood, ALA hamsters, i.p. 4 days)?
**A.** 8 ± 0.1 fL

**Q.** What about the TB/AL ratio ([2]; drug toxicity ratio) of the same compound?
**A.** 0.38 ± 0.16

**Q.** What about the neutrophil/lymphocyte ratio ([2]; hematic ratio) of the same compound?
**A.** 1.15 ± 0.7

**Q.** What about the Band neutrophils ([2]; in vivo) of the same compound?
**A.** 0%

**Q.** And the Basophils ([2]; in vivo)?
**A.** 0%

**Q.** What about the Eosinophils ([2]; in vivo) of the same compound?
**A.** 0%

**Q.** What about the Immature forms ([2]; in vivo) of the same compound?
**A.** 0%

**Q.** What about the Lymphocytes ([2]; in vivo) of the same compound?
**A.** 50 ± 13%

**Q.** And the Monocytes ([2]; in vivo)?
**A.** 0%

**Q.** What about the Segmented neutrophils ([2]; in vivo) of the same compound?
**A.** 51 ± 13%

**Q.** What about the “ALT (GPT)” value ([2]; in vivo, ip) of the same compound?
**A.** 135 ± 23 U/L

**Q.** What about the “AST (GOT)” value ([2]; in vivo, ip) of the same compound?
**A.** 81 ± 24 U/L

**Q.** What about the Albumin ([2]; in vivo, ip) of the same compound?
**A.** 1.9 ± 0.3 g/dL

**Q.** And the Alkaline phosphatase ([2]; in vivo, ip)?
**A.** 230 ± 11 U/L

**Q.** And the Cholesterol ([2]; in vivo, ip)?
**A.** 116 ± 9.1 mg/dL

**Q.** And the Creatinine ([2]; in vivo, ip)?
**A.** 1.01 ± 0.2 mg/dL

**Q.** What about the Direct bilirubin ([2]; in vivo, ip) of the same compound?
**A.** 0.5 ± 0.1 mg/dL

**Q.** And the Erythrocytes ([2]; in vivo, ip)?
**A.** 3.7 ± 0.2 x10 6/mm3

**Q.** And the GGT ([2]; in vivo, ip)?
**A.** 5.5 ± 2.3 U/L

**Q.** And the Glucose ([2]; in vivo, ip)?
**A.** 161 ± 21 mg/dL

**Q.** And the Hematocrit ([2]; in vivo, ip)?
**A.** 35 ± 2.6%

**Q.** And the Hemoglobin ([2]; in vivo, ip)?
**A.** 14. 7 ± 1.2 g/dL

**Q.** And the Indirect bilirubin ([2]; in vivo, ip)?
**A.** 0.20 ± 0.1 mg/dL

**Q.** And the Leukocytes ([2]; in vivo, ip)?
**A.** 7.7 ± 2.6 x100/mm3

**Q.** What about the MCH ([2]; in vivo, ip) of the same compound?
**A.** 40 ± 1.6 pg

**Q.** And the MCHC ([2]; in vivo, ip)?
**A.** 43 ± 1.4 g/dL

**Q.** What about the MCV ([2]; in vivo, ip) of the same compound?
**A.** 94 ± 2.2 fL

**Q.** And the PCT ([2]; in vivo, ip)?
**A.** 0.4 ± 0.1%

**Q.** What about the PDW ([2]; in vivo, ip) of the same compound?
**A.** 11 ± 0.4 fL

**Q.** And the Platelets ([2]; in vivo, ip)?
**A.** 536 ± 148 x106/μL

**Q.** What about the RDW-CV ([2]; in vivo, ip) of the same compound?
**A.** 25.8 ± 3.3 fL

**Q.** And the RDW-SD ([2]; in vivo, ip)?
**A.** 111 ± 12 fL

**Q.** And the Total bilirubin ([2]; in vivo, ip)?
**A.** 0.7 ± 0.3 mg/dL

**Q.** What about the Total protein ([2]; in vivo, ip) of the same compound?
**A.** 5.3 ± 0.9 g/dL

**Q.** And the Triglycerides ([2]; in vivo, ip)?
**A.** 280 ± 75 mg/dL

**Q.** And the Urea ([2]; in vivo, ip)?
**A.** 41.2 ± 1.4 mg/dL

**Q.** What about the BUN/CR ratio ([2]; kidney damage ratio) of the same compound?
**A.** 19.6 ± 3.8

**Q.** What about the urea/CR ratio ([2]; kidney damage ratio) of the same compound?
**A.** 42 ± 8.15

**Q.** And the “AST/ALT ratio (De Ritis ratio)” value ([2]; liver injury ratio)?
**A.** < 1

**Q.** And the Heart largest diameter [3]?
**A.** 1.08 ± 0.04 cm

**Q.** And the Heart weight [3]?
**A.** 0.38 ± 0.1 g

**Q.** What about the Kidneys largest diameter [3] of the same compound?
**A.** 1.3 ± 0.08 cm

**Q.** And the Kidneys weight [3]?
**A.** 0.52 ± 0.0 g

**Q.** And the Liver largest diameter [3]?
**A.** 4 ± 0.15 cm

**Q.** What about the Liver weight [3] of the same compound?
**A.** 5.76 ± 1.4 g

**Q.** What about the Lungs largest diameter [3] of the same compound?
**A.** 2.5 ± 0.2 cm

**Q.** And the Lungs weight [3]?
**A.** 0.68 ± 0.05 g

**Q.** And the Spleen largest diameter [3]?
**A.** 3.3 ± 0.3 cm

**Q.** What about the Spleen weight [3] of the same compound?
**A.** 0.2 ± 0.05 g

**Q.** And the apoptotic trophozoites [4]?
**A.** 2%

**Q.** What about the “decrease of size and granularity of the cell population” value [4] of the same compound?
**A.** 52%

**Q.** What about the necrotic trophozoites [4] of the same compound?
**A.** 62.2%

**Q.** What about the “biological activity symbol on IC50 HM-1” value ([4]; 48 h) of the same compound?
**A.** ++

**Q.** What about the “LD50 (Theoretical)” value [5] of the same compound?
**A.** 1026 mg/kg

**Q.** And the Survival rate (ALA hamsters, i.p. 4 days)?
**A.** 100%

**Q.** What about the Toxicity signs (in vivo, ip) of the same compound?
**A.** None

**Q.** And the IC50 [6]?
**A.** 0.16 µg/mL (≈ 0.935 µM)
